# Assay results as given in patent US6503449B1, “Process for the control of microbial contamination in water-based solids suspensions” (Ciba Specialty Chemicals Corporation, priority 1998, dated 2003).
# Test system: Pseudomonas putida
# Assay: Sonication (20 kHz horn probe) of Pigment Red 23 dispersion with biocide, streaking on Nutrient Agar plates
# Type: cell-based
# Design: key: −: no bacterial colonies detected; +: light contamination (10^0 and 10^3 cfu/ml); ++: moderate contamination(10^3-10^5 cfu/ml); +++: heavy contamination(>10^5 cfu/ml)
# Text: A mixture of Pigment Red 23, available from Ciba Specialty Chemicals(UK) Ltd., 215.5 parts, Emulan OG (RTM) (35% solution in water), available from BASF, 153.7 parts, tributyl phosphate, available from Albright & Wilson, 2 parts, and water, 128.8 parts, are dispersed by re-circulation through a Bachofen KDL200 bead-mill until colouristic properties are within specification of UNISPERSE (RTM) Red RBS-PI, available from Ciba Specialty Chemicals(UK) Ltd., and adjusted to pH 8.0-8.5 with 20% sodium hydroxide solution. This material is identified as containing the Gram negative bacterium, Pseudomonas putida. 50 millilitre aliquots of this dispersion containing levels of glutaraldehyde (pentane-1,5-dialdehyde), available as the trade product Protectol GDA form BASF or Ucarcide from Union Carbide, between 0 parts per million (ppm) and 2000 ppm are sonicated using a Branson MSE sonicator with a 19 mm horn probe resonating at 20 kHz with an amplitude of 6 microns. Sonication is undertaken in a 100 millilitre glass beaker, diameter 38 mm, with magnetic flea agitator and cooled in a water/ice bath to maintain temperature at 28-32° C. Bacterial growth in each sample is assessed at 5 minute intervals by streaking each dispersion on to Nutrient Agar(NA) plates and incubating the plates for a minimum of 48 hours at 30° C. The plates are then examined for bacterial colonies and expressed according to the following notation:
# The resistance of the pigment dispersion produced according to the process of the invention to further bacterial growth is recorded by continued observation of the samples of Table 1 over a period of up to 90 days. […]
structure (smiles),measurement,setting,value
"O=CCCCC=O [glutaraldehyde, pentane-1,5-dialdehyde]","further bacterial growth, samples of Table 1","10 ppm, Time 1 (days) after sonication",−
same,"further bacterial growth, samples of Table 1","10 ppm, Time 2 (days) after sonication",−
same,"further bacterial growth, samples of Table 1","10 ppm, Time 3 (days) after sonication",−
same,"further bacterial growth, samples of Table 1","10 ppm, Time 7 (days) after sonication",−
same,"further bacterial growth, samples of Table 1","10 ppm, Time 14 (days) after sonication",−
same,"further bacterial growth, samples of Table 1","10 ppm, Time 28 (days) after sonication",−
same,"further bacterial growth, samples of Table 1","10 ppm, Time 90 (days) after sonication",−
same,bacterial colonies on Nutrient Agar,"10 ppm, sonicated 0 mins.",+++ (heavy contamination(>10^5 cfu/ml))
same,bacterial colonies on Nutrient Agar,"10 ppm, sonicated 5 mins.",+++ (heavy contamination(>10^5 cfu/ml))
same,bacterial colonies on Nutrient Agar,"10 ppm, sonicated 10 mins.",+++ (heavy contamination(>10^5 cfu/ml))
same,bacterial colonies on Nutrient Agar,"10 ppm, sonicated 15 mins.",++ (moderate contamination(10^3-10^5 cfu/ml))
same,bacterial colonies on Nutrient Agar,"10 ppm, sonicated 20 mins.",+ (light contamination (10^0 and 10^3 cfu/ml))
same,bacterial colonies on Nutrient Agar,"10 ppm, sonicated 25 mins.",+ (light contamination (10^0 and 10^3 cfu/ml))
same,bacterial colonies on Nutrient Agar,"10 ppm, sonicated 30 mins.",−
same,"further bacterial growth, samples of Table 1","25 ppm, Time 1 (days) after sonication",−
same,"further bacterial growth, samples of Table 1","25 ppm, Time 2 (days) after sonication",−
same,"further bacterial growth, samples of Table 1","25 ppm, Time 3 (days) after sonication",−
same,"further bacterial growth, samples of Table 1","25 ppm, Time 7 (days) after sonication",−
same,"further bacterial growth, samples of Table 1","25 ppm, Time 14 (days) after sonication",−
same,"further bacterial growth, samples of Table 1","25 ppm, Time 28 (days) after sonication",−
same,"further bacterial growth, samples of Table 1","25 ppm, Time 90 (days) after sonication",−
same,bacterial colonies on Nutrient Agar,"25 ppm, sonicated 0 mins.",+++ (heavy contamination(>10^5 cfu/ml))
same,bacterial colonies on Nutrient Agar,"25 ppm, sonicated 5 mins.",++ (moderate contamination(10^3-10^5 cfu/ml))
same,bacterial colonies on Nutrient Agar,"25 ppm, sonicated 10 mins.",−
same,bacterial colonies on Nutrient Agar,"25 ppm, sonicated 15 mins.",−
same,bacterial colonies on Nutrient Agar,"25 ppm, sonicated 20 mins.",−
same,bacterial colonies on Nutrient Agar,"25 ppm, sonicated 25 mins.",−
same,bacterial colonies on Nutrient Agar,"25 ppm, sonicated 30 mins.",−
same,"further bacterial growth, samples of Table 1","50 ppm, Time 1 (days) after sonication",−
same,"further bacterial growth, samples of Table 1","50 ppm, Time 2 (days) after sonication",−
same,"further bacterial growth, samples of Table 1","50 ppm, Time 3 (days) after sonication",−
same,"further bacterial growth, samples of Table 1","50 ppm, Time 7 (days) after sonication",−
same,"further bacterial growth, samples of Table 1","50 ppm, Time 14 (days) after sonication",−
same,"further bacterial growth, samples of Table 1","50 ppm, Time 28 (days) after sonication",−
same,"further bacterial growth, samples of Table 1","50 ppm, Time 90 (days) after sonication",−
same,bacterial colonies on Nutrient Agar,"50 ppm, sonicated 0 mins.",+++ (heavy contamination(>10^5 cfu/ml))
same,bacterial colonies on Nutrient Agar,"50 ppm, sonicated 5 mins.",++ (moderate contamination(10^3-10^5 cfu/ml))
same,bacterial colonies on Nutrient Agar,"50 ppm, sonicated 10 mins.",−
same,bacterial colonies on Nutrient Agar,"50 ppm, sonicated 15 mins.",++ (moderate contamination(10^3-10^5 cfu/ml))
same,bacterial colonies on Nutrient Agar,"50 ppm, sonicated 20 mins.",−
same,bacterial colonies on Nutrient Agar,"50 ppm, sonicated 25 mins.",−
same,bacterial colonies on Nutrient Agar,"50 ppm, sonicated 30 mins.",−
same,"further bacterial growth, samples of Table 1","75 ppm, Time 1 (days) after sonication",−
same,"further bacterial growth, samples of Table 1","75 ppm, Time 2 (days) after sonication",−
same,"further bacterial growth, samples of Table 1","75 ppm, Time 3 (days) after sonication",−
same,"further bacterial growth, samples of Table 1","75 ppm, Time 7 (days) after sonication",−
same,"further bacterial growth, samples of Table 1","75 ppm, Time 14 (days) after sonication",−
same,"further bacterial growth, samples of Table 1","75 ppm, Time 28 (days) after sonication",−
same,"further bacterial growth, samples of Table 1","75 ppm, Time 90 (days) after sonication",−
same,bacterial colonies on Nutrient Agar,"75 ppm, sonicated 0 mins.",+++ (heavy contamination(>10^5 cfu/ml))
same,bacterial colonies on Nutrient Agar,"75 ppm, sonicated 5 mins.",−
same,bacterial colonies on Nutrient Agar,"75 ppm, sonicated 10 mins.",−
same,bacterial colonies on Nutrient Agar,"75 ppm, sonicated 15 mins.",−
same,bacterial colonies on Nutrient Agar,"75 ppm, sonicated 20 mins.",−
same,bacterial colonies on Nutrient Agar,"75 ppm, sonicated 25 mins.",−
same,bacterial colonies on Nutrient Agar,"75 ppm, sonicated 30 mins.",−
same,"further bacterial growth, samples of Table 1","100 ppm, Time 1 (days) after sonication",−
same,"further bacterial growth, samples of Table 1","100 ppm, Time 2 (days) after sonication",−
same,"further bacterial growth, samples of Table 1","100 ppm, Time 3 (days) after sonication",−
same,"further bacterial growth, samples of Table 1","100 ppm, Time 7 (days) after sonication",−
same,"further bacterial growth, samples of Table 1","100 ppm, Time 14 (days) after sonication",−
same,"further bacterial growth, samples of Table 1","100 ppm, Time 28 (days) after sonication",−
same,"further bacterial growth, samples of Table 1","100 ppm, Time 90 (days) after sonication",−
same,bacterial colonies on Nutrient Agar,"100 ppm, sonicated 0 mins.",+++ (heavy contamination(>10^5 cfu/ml))
same,bacterial colonies on Nutrient Agar,"100 ppm, sonicated 5 mins.",+ (light contamination (10^0 and 10^3 cfu/ml))
same,bacterial colonies on Nutrient Agar,"100 ppm, sonicated 10 mins.",+ (light contamination (10^0 and 10^3 cfu/ml))
same,bacterial colonies on Nutrient Agar,"100 ppm, sonicated 15 mins.",−
same,bacterial colonies on Nutrient Agar,"100 ppm, sonicated 20 mins.",−
same,bacterial colonies on Nutrient Agar,"100 ppm, sonicated 25 mins.",−
same,bacterial colonies on Nutrient Agar,"100 ppm, sonicated 30 mins.",−
same,"further bacterial growth, samples of Table 1","150 ppm, Time 1 (days) after sonication",−
same,"further bacterial growth, samples of Table 1","150 ppm, Time 2 (days) after sonication",−
same,"further bacterial growth, samples of Table 1","150 ppm, Time 3 (days) after sonication",−
same,"further bacterial growth, samples of Table 1","150 ppm, Time 7 (days) after sonication",−
same,"further bacterial growth, samples of Table 1","150 ppm, Time 14 (days) after sonication",−
same,"further bacterial growth, samples of Table 1","150 ppm, Time 28 (days) after sonication",−
same,"further bacterial growth, samples of Table 1","150 ppm, Time 90 (days) after sonication",−
same,bacterial colonies on Nutrient Agar,"150 ppm, sonicated 0 mins.",+++ (heavy contamination(>10^5 cfu/ml))
same,bacterial colonies on Nutrient Agar,"150 ppm, sonicated 5 mins.",−
same,bacterial colonies on Nutrient Agar,"150 ppm, sonicated 10 mins.",−
same,bacterial colonies on Nutrient Agar,"150 ppm, sonicated 15 mins.",−
same,bacterial colonies on Nutrient Agar,"150 ppm, sonicated 20 mins.",−
same,bacterial colonies on Nutrient Agar,"150 ppm, sonicated 25 mins.",−
same,bacterial colonies on Nutrient Agar,"150 ppm, sonicated 30 mins.",−
same,"further bacterial growth, samples of Table 1","500 ppm, Time 1 (days) after sonication",−
same,"further bacterial growth, samples of Table 1","500 ppm, Time 2 (days) after sonication",−
same,"further bacterial growth, samples of Table 1","500 ppm, Time 3 (days) after sonication",−
same,"further bacterial growth, samples of Table 1","500 ppm, Time 7 (days) after sonication",−
same,"further bacterial growth, samples of Table 1","500 ppm, Time 14 (days) after sonication",−
same,"further bacterial growth, samples of Table 1","500 ppm, Time 28 (days) after sonication",−
same,"further bacterial growth, samples of Table 1","500 ppm, Time 90 (days) after sonication",−
same,bacterial colonies on Nutrient Agar,"500 ppm, sonicated 0 mins.",+++ (heavy contamination(>10^5 cfu/ml))
same,bacterial colonies on Nutrient Agar,"500 ppm, sonicated 5 mins.",−
same,bacterial colonies on Nutrient Agar,"500 ppm, sonicated 10 mins.",−
same,bacterial colonies on Nutrient Agar,"500 ppm, sonicated 15 mins.",−
same,bacterial colonies on Nutrient Agar,"500 ppm, sonicated 20 mins.",−
same,bacterial colonies on Nutrient Agar,"500 ppm, sonicated 25 mins.",−
same,bacterial colonies on Nutrient Agar,"500 ppm, sonicated 30 mins.",−
same,"further bacterial growth, samples of Table 1","1000 ppm, Time 1 (days) after sonication",−
same,"further bacterial growth, samples of Table 1","1000 ppm, Time 2 (days) after sonication",−
same,"further bacterial growth, samples of Table 1","1000 ppm, Time 3 (days) after sonication",−
same,"further bacterial growth, samples of Table 1","1000 ppm, Time 7 (days) after sonication",−
same,"further bacterial growth, samples of Table 1","1000 ppm, Time 14 (days) after sonication",−
same,"further bacterial growth, samples of Table 1","1000 ppm, Time 28 (days) after sonication",−
same,"further bacterial growth, samples of Table 1","1000 ppm, Time 90 (days) after sonication",−
same,bacterial colonies on Nutrient Agar,"1000 ppm, sonicated 0 mins.",+++ (heavy contamination(>10^5 cfu/ml))
same,bacterial colonies on Nutrient Agar,"1000 ppm, sonicated 5 mins.",−
same,bacterial colonies on Nutrient Agar,"1000 ppm, sonicated 10 mins.",−
same,bacterial colonies on Nutrient Agar,"1000 ppm, sonicated 15 mins.",−
same,bacterial colonies on Nutrient Agar,"1000 ppm, sonicated 20 mins.",−
same,bacterial colonies on Nutrient Agar,"1000 ppm, sonicated 25 mins.",−
same,bacterial colonies on Nutrient Agar,"1000 ppm, sonicated 30 mins.",−
same,"further bacterial growth, samples of Table 1","2000 ppm, Time 1 (days) after sonication",−
same,"further bacterial growth, samples of Table 1","2000 ppm, Time 2 (days) after sonication",−
same,"further bacterial growth, samples of Table 1","2000 ppm, Time 3 (days) after sonication",−
same,"further bacterial growth, samples of Table 1","2000 ppm, Time 7 (days) after sonication",−
same,"further bacterial growth, samples of Table 1","2000 ppm, Time 14 (days) after sonication",−
same,"further bacterial growth, samples of Table 1","2000 ppm, Time 28 (days) after sonication",−
same,"further bacterial growth, samples of Table 1","2000 ppm, Time 90 (days) after sonication",−
same,bacterial colonies on Nutrient Agar,"2000 ppm, sonicated 0 mins.",+++ (heavy contamination(>10^5 cfu/ml))
same,bacterial colonies on Nutrient Agar,"2000 ppm, sonicated 5 mins.",−
same,bacterial colonies on Nutrient Agar,"2000 ppm, sonicated 10 mins.",−
same,bacterial colonies on Nutrient Agar,"2000 ppm, sonicated 15 mins.",−
same,bacterial colonies on Nutrient Agar,"2000 ppm, sonicated 20 mins.",−
same,bacterial colonies on Nutrient Agar,"2000 ppm, sonicated 25 mins.",−
same,bacterial colonies on Nutrient Agar,"2000 ppm, sonicated 30 mins.",−
